Experimental data published in the supplement of paper PMC8024199.
± gives the standard deviation of the averaged measurements.

Key:
Assay in all cases: drug sensitivity score (DSS) (DSS score); higher = more sensitive (stronger growth inhibition); extreme values may be limits of the assay
[1] = system: Ba/F3 P210-BCR-ABL1 RUNX1-/- (mouse)
Summary of the method: (§1)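 Mouse Ba/F3 cells carrying P210-BCR-ABL1, CRISPR/Cas9-edited at runx1 exon 4 or edited-control clones, were screened against a 528-compound library on pre-printed 384-well plates. Each compound ran at five concentrations spanning a 10,000-fold range, with 10,000 cells per well in RPMI with 10% FBS for 72 h at 37 °C and 5% CO2. CellTiter-Glo luminescence was scaled between vehicle and positive-control wells. A drug sensitivity score summarised each dose-response, averaged over two replicates.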

[2] = system: Ba/F3 P210-BCR-ABL1 RUNX1-/mut (mouse)
Summary of the method: as §1

[3] = system: Ba/F3 P210-BCR-ABL1 RUNX1wt/wt control (mouse)
Summary of the method: as §1

COc1cccc2c1C(=O)c1c(O)c3c(c(O)c1C2=O)C[C@@](O)(C(=O)CO)C[C@@H]3O[C@H]1C[C@H](N)[C@@H](O)[C@H](C)O1 [Epirubicin]
drug sensitivity score [1]: 24.9 ± 0.35 | drug sensitivity score [2]: 18.6 ± 3.5 | drug sensitivity score [3]: 13.1 ± 0.21

Cc1c(Cn2c(C)nc3c(C(=O)O)cc(N4CCOCC4)cc32)cccc1C(F)(F)F
drug sensitivity score [1]: 0 | drug sensitivity score [2]: 0 | drug sensitivity score [3]: 0

CO[C@H]1C(=O)[C@]2(C)[C@@H](OC)C[C@H]3OC[C@@]3(OC(C)=O)[C@H]2[C@H](OC(=O)c2ccccc2)[C@]2(O)C[C@H](OC(=O)[C@H](O)[C@@H](NC(=O)OC(C)(C)C)c3ccccc3)C(C)=C1C2(C)C [Cabazitaxel]
drug sensitivity score [1]: 35.9 ± 1.4 | drug sensitivity score [2]: 26.2 ± 3.5 | drug sensitivity score [3]: 13.55 ± 0.071

CCC(C)n1ncn(-c2ccc(N3CCN(c4ccc(OCC5COC(Cn6cncn6)(c6ccc(Cl)cc6Cl)O5)cc4)CC3)cc2)c1=O (stereo not given) [Itraconazole]
drug sensitivity score [1]: 3.8 ± 5.4 | drug sensitivity score [2]: 4.6 ± 6.5 | drug sensitivity score [3]: 7.1 ± 1.3

CONC(=O)c1ccccc1Nc1cc(Nc2cc(C)nn2C(C)C)ncc1Cl
drug sensitivity score [1]: 0.15 ± 0.21 | drug sensitivity score [2]: 0.15 ± 0.21 | drug sensitivity score [3]: 0

COc1cccc2c1c(O)c(C(=O)N(C)c1ccc(C(F)(F)F)cc1)c(=O)n2C [Tasquinimod]
drug sensitivity score [1]: 0.75 ± 1.1 | drug sensitivity score [2]: 2.15 ± 3 | drug sensitivity score [3]: 0.5 ± 0.71

O=C(c1ccc(C(=O)N2CCC(N3CCCC3)CC2)c(Nc2ccccc2)c1)N1CCC(N2CCCC2)CC1 [UNC1215]
drug sensitivity score [1]: 0 | drug sensitivity score [2]: 0 | drug sensitivity score [3]: 0

CCc1cnn2c(NCc3ccc[n+]([O-])c3)cc(N3CCCC[C@H]3CCO)nc12 [Dinaciclib]
drug sensitivity score [1]: 19.6 ± 2.3 | drug sensitivity score [2]: 19.9 ± 0.35 | drug sensitivity score [3]: 18.6 ± 0.78

C[C@H](Nc1ncnc2nc[nH]c12)c1cc2cccc(Cl)c2c(=O)n1-c1ccccc1 [Duvelisib]
drug sensitivity score [1]: 2.6 ± 0.99 | drug sensitivity score [2]: 2.35 ± 3.3 | drug sensitivity score [3]: 0

CC(C)n1cnc2c(NCCc3ccc(O)cc3)nc(-c3csc4ccccc34)nc21 [StemRegenin 1]
drug sensitivity score [1]: 3.45 ± 2.9 | drug sensitivity score [2]: 3.05 ± 3.9 | drug sensitivity score [3]: 0.8 ± 0.28

CN(C(=O)c1ccc(F)cc1C(F)(F)F)C1CCN(c2nnc(-c3ccnn3C)c3ccccc23)CC1 [Taladegib]
drug sensitivity score [1]: 0.85 ± 1.2 | drug sensitivity score [2]: 1.8 ± 2.5 | drug sensitivity score [3]: 0

Cn1cc(C2=Nc3cc(NC(=O)C(N)C4CCCCC4)cc4c3C2=CNNC4=O)cn1 (stereo not given)
drug sensitivity score [1]: 18.2 ± 0.14 | drug sensitivity score [2]: 16 ± 0.42 | drug sensitivity score [3]: 7.95 ± 1.1

CN1CCN(C(=O)c2ccc3cc(CCNc4ncnc5ccc(C#N)cc45)ccc3c2)CC1 [Senexin B]
drug sensitivity score [1]: 0.8 | drug sensitivity score [2]: 1.1 ± 1.6 | drug sensitivity score [3]: 0.15 ± 0.21

S=C(NCc1ccc2c(c1)OCO2)N1CCN(c2ncnc3c2oc2ccccc23)CC1 [Amuvatinib]
drug sensitivity score [1]: 11.3 ± 1.3 | drug sensitivity score [2]: 8.45 ± 1.9 | drug sensitivity score [3]: 14.9 ± 1.1

CN1CCN(C2CCN(C(=O)Nc3cc(Oc4ccc(NC(=O)C5(C(=O)Nc6ccc(F)cc6)CC5)c(F)c4)ccn3)CC2)CC1 [Golvatinib]
drug sensitivity score [1]: 3.95 ± 2 | drug sensitivity score [2]: 1.8 ± 2 | drug sensitivity score [3]: 0

C=CC(=O)N1CCC[C@@H](n2nc(-c3ccc(Oc4ccccc4)cc3)c3c(N)ncnc32)C1 [Ibrutinib]
drug sensitivity score [1]: 1.5 ± 0.71 | drug sensitivity score [2]: 0.2 ± 0.28 | drug sensitivity score [3]: 0.35 ± 0.49

CCS(=O)(=O)c1cccc(-c2cc(C(=O)NC3CCN(C)CC3)c(C)c3[nH]c4ncc(C)cc4c23)c1 [TAK-901]
drug sensitivity score [1]: 5.8 ± 0.99 | drug sensitivity score [2]: 3.55 ± 0.49 | drug sensitivity score [3]: 0

O=C(O)c1ccc(O)c2ncccc12 [IOX-1]
drug sensitivity score [1]: 2.5 ± 2 | drug sensitivity score [2]: 2.4 ± 2.8 | drug sensitivity score [3]: 1.75 ± 0.21

COC(=O)c1ccc([C@H]2c3[nH]c4ccccc4c3C[C@H](C(=O)OC)N2C(=O)CCl)cc1 [RSL3]
drug sensitivity score [1]: 0 | drug sensitivity score [2]: 0.3 ± 0.42 | drug sensitivity score [3]: 0

O=C(O)C(=O)O.[NH-][C@@H]1CCCC[C@H]1[NH-].[Pt+2] [Oxaliplatin]
drug sensitivity score [1]: 29 ± 0.14 | drug sensitivity score [2]: 28.6 ± 0.71 | drug sensitivity score [3]: 25.85 ± 0.21

CC(C)[C@H]1C(=O)N[C@@H](CCCNC(=N)N)C(=O)NCC(=O)N[C@@H](CC(=O)O)C(=O)N[C@H](Cc2ccccc2)C(=O)N1C [Cilengitide]
drug sensitivity score [1]: 0 | drug sensitivity score [2]: 0 | drug sensitivity score [3]: 0

N[C@@H]1CCCN(c2c(/C=C3\SC(=O)NC3=O)cccc2-c2ccccc2)C1 [AZD1208]
drug sensitivity score [1]: 11.8 ± 0.35 | drug sensitivity score [2]: 7.05 ± 2.5 | drug sensitivity score [3]: 2.4 ± 0.42

CCOC(=O)C1=CCCC[C@H]1S(=O)(=O)Nc1ccc(F)cc1Cl [Resatorvid]
drug sensitivity score [1]: 0 | drug sensitivity score [2]: 0 | drug sensitivity score [3]: 0

CC(C)N(CCCNC(=O)Nc1ccc(C(C)(C)C)cc1)C[C@H]1O[C@@H](n2cc(Br)c3c(N)ncnc32)[C@H](O)[C@@H]1O [SGC0946]
drug sensitivity score [1]: 3.45 ± 2.3 | drug sensitivity score [2]: 3.7 ± 5.2 | drug sensitivity score [3]: 0

NS(=O)(=O)NCCNc1nonc1/C(=N/O)Nc1ccc(F)c(Br)c1 [Epacadostat]
drug sensitivity score [1]: 1.05 ± 1.2 | drug sensitivity score [2]: 0.7 ± 0.99 | drug sensitivity score [3]: 0

CC(=O)c1cnc2ccc(-c3cc(Cl)c(O)c(Cl)c3)nc2c1N[C@H]1CC[C@H](CN(C)C)CC1 [OTS167]
drug sensitivity score [1]: 22.1 ± 0.78 | drug sensitivity score [2]: 20.4 ± 0.92 | drug sensitivity score [3]: 17 ± 0.42

CC[C@H](C)C(=O)O[C@H]1C[C@@H](C)C=C2C=C[C@H](C)[C@H](CC[C@@H]3C[C@@H](O)CC(=O)O3)[C@H]21 [Lovastatin]
drug sensitivity score [1]: 0 | drug sensitivity score [2]: 0 | drug sensitivity score [3]: 0

C[C@@H]1CN(CC(=O)Nc2ccc3c(c2)Cc2cccc(-c4cc(=O)cc(N5CCOCC5)o4)c2S3)C[C@H](C)O1
drug sensitivity score [1]: 6.15 ± 1.8 | drug sensitivity score [2]: 5.3 ± 1.3 | drug sensitivity score [3]: 3.05 ± 0.49

CC[C@@H]1C(=O)N(C)c2cnc(Nc3ccc(C(=O)N[C@H]4CC[C@H](N5CCN(CC6CC6)CC5)CC4)cc3OC)nc2N1C(C)C [Volasertib]
drug sensitivity score [1]: 11.15 ± 0.071 | drug sensitivity score [2]: 10.3 ± 0.42 | drug sensitivity score [3]: 5.9 ± 0.28

FC(F)(F)c1ccc(CNc2ccc(Cc3c[nH]c4ncc(Cl)cc34)cn2)cn1 [Pexidartinib]
drug sensitivity score [1]: 0.05 ± 0.071 | drug sensitivity score [2]: 0.1 ± 0.14 | drug sensitivity score [3]: 0.1 ± 0.14

O=C(O)CC[C@H]1CC[C@@](c2cc(F)ccc2F)(S(=O)(=O)c2ccc(Cl)cc2)CC1 [MK-0752]
drug sensitivity score [1]: 0 | drug sensitivity score [2]: 0 | drug sensitivity score [3]: 0

CCc1nc(C(N)=O)c(Nc2ccc(N3CCC(N4CCN(C)CC4)CC3)c(OC)c2)nc1NC1CCOCC1 [Gilteritinib]
drug sensitivity score [1]: 6.2 ± 2 | drug sensitivity score [2]: 8.4 ± 2.5 | drug sensitivity score [3]: 3.25 ± 0.78

CN(C)CCCOc1ccc(-c2ccc3ncc4c(c3c2)n(C2CCOCC2)c(=O)n4C)cn1 [AZD0156]
drug sensitivity score [1]: 6.8 ± 1.7 | drug sensitivity score [2]: 7.6 ± 0.14 | drug sensitivity score [3]: 0

c1cn2cc(-c3ccc4cn[nH]c4c3)nc(Nc3ccc(N4CCOCC4)cc3)c2n1 [Entospletinib]
drug sensitivity score [1]: 1.95 ± 1.3 | drug sensitivity score [2]: 1.35 ± 1.9 | drug sensitivity score [3]: 0

CCc1c2c(nc3ccc(O)cc13)-c1cc3c(c(=O)n1C2)COC(=O)[C@]3(O)CC [SN-38]
drug sensitivity score [1]: 33.2 ± 0.99 | drug sensitivity score [2]: 29.1 ± 1.8 | drug sensitivity score [3]: 26.9 ± 0.42
